Results: patent US6989401B2, “Sulfonic acid derivatives of hydroxamic acids and their use as medicinal products” (Mitsubishi Pharma Corporation, priority 2000, dated 2006)
Where two headings read alike, the source gives them in different places.

Assays:
[1] = tested on: LPS in E. coli culture supernatant (E. coli NIHJ JC-2 strain); assay: Inhibitory effect on LPS in E. coli culture supernatant; assay type: cell-based; settings: 24 hr; for inhibitory effect of compound on LPS in E. coli culture supernatant, relative ratio: relative ratio to the inhibitory ratio of the compound of Example 1 as 1.0, compound 100 μM
Protocol: One platinum loop of E. coli NIHJ JC-2 strain was inoculated into a test tube containing heart infusion broth (HIB, 5 mL) and cultured for about 24 hr. The bacterial culture broth was washed three times by centrifugation (3000 rpm, 15 min, 20° C., TOMY Seiko, RL-131) using 10 mL of fresh HIB medium for one cycle of washing. The washed bacteria were prepared to an about 10^7 colony forming unit (CFU)/mL with a fresh HIB medium, and 0.2 mL of the prepared bacterial suspension was inoculated into an Erlenmeyer flask containing a fresh HIB medium (18.8 mL) (i.e., to final bacterial concentration of about 10^5 CFU/mL). A solution (1 mL) of each compound prepared to a concentration of 2 mM (final concentration of compound 100 μM) was added to the culture broth containing the bacteria. Using a shaker (RGR-1 type, manufactured by IWASHIYA, Ltd.), shake culture was conducted at 37° C., and 2 mL of culture broth after 24 hr was sampled. The sampled culture broth was filtered (DISMIC, 0.45 μm, Advantech Toyo) and diluted 10^5-fold with sterile distilled water. The resulting suspension (200 μL) was added to a limulus reagent (LAL ES, Wako Pure Chemical Industries) and LPS concentration was measured using Toxinometer MT-285 (Wako Pure Chemical Industries) preheated to 37° C.
The LPS inhibitory ratio of the compound was calculated as a ratio of the LPS concentration of the compound addition group relative to the LPS concentration of the compound non-addition group. […] The inhibitory ratio of each compound is shown in the following in Table 1 as a relative ratio to the inhibitory ratio of the compound of Example 1 as 1.0.

[2] = tested on: LPS in rat peritonitis (CLP; cecal ligation and puncture) model; assay: Inhibitory effect on LPS that increases in rat peritonitis (CLP) model; assay type: in vivo; settings: iv, continuous tail vein infusion 2.5 mg/kg/hr
Protocol: Rat peritonitis (CLP; cecal ligation and puncture) model was prepared according to the method of Wichterman et al. (J. Surg. Res. 29, 189-201 <1980>). That is, a rat fasted overnight was anesthetized with ether, and a midline laparotomy was performed and the cecum was exposed. The cecum was ligated with a 3-0 silk thread at its base and perforated two times with an 18 G injection needle. The cecum was gently squeezed to extrude feces, which were spread around the abdomen, and the sectioned part was sutured. The animal was fixed in a Borrmann cage, and physiological saline or drug solution ([…]) was continuously given from the tail vein at an administration rate of 2.5 mg/kg/hr with an infusion pump (22 M, Harvard, 5 mL/kg/hr as a dose).
After 6 hr of the CLP treatment, the animal was sacrificed with carbonic acid gas. The abdominal cavity was washed by injecting phosphate buffered saline (PBS; 37° C., 10 mL) and the abdominal cavity washing containing ascites (PLF; peritoneal lavage fluid) was recovered. The recovery weight of the obtained PLF was measured, and PLF was centrifuged (1500 rpm for 5 min, 4° C.) to recover supernatant. The blood taken from the heart was centrifuged (3000 rpm for 10 min, 4° C.) using a serum separation tube, and the serum was recovered. The concentration of LPS in the abdominal cavity and serum was measured using Toxinometer MT-285 (Waco Pure Chemical Industries) preheated to 37° C., after diluting the supernatant and serum of the recovered PLF 10^5-fold and 10^2-fold, respectively, with sterile distilled water, and adding 200 μL thereof to a limulus reagent (LAL ES, Waco Pure Chemical Industries). The amount of LPS per abdominal cavity was calculated from amount of recovered abdominal cavity washing (PLF)×LPS concentration of PLF.
The LPS inhibitory ratio of the compound was calculated as the ratio of LPS concentration of the compound administration group to LPS concentration of the physiological saline administration group.

[3] = peritoneal lavage fluid 6 hr after CLP, read-out: LPS inhibitory ratio (%) in abdominal cavity
[4] = serum 6 hr after CLP, read-out: LPS inhibitory ratio (%) in blood

SMILES | inhibitory effect of compound on LPS in E. coli culture supernatant, relative ratio ([1]; sodium salt) | inhibitory effect of compound on LPS in E. coli culture supernatant, relative ratio [1] | other results
CNC(=O)[C@H](Cc1ccc(OCCCS(=O)(=O)[O-])cc1)NC(=O)[C@H](CC(C)C)C(CN1C(=O)c2ccccc2C1=O)C(=O)NO.[Na+] (single isomer, unassigned) [Example 1, 5-methyl-3(R)-{1(S)-methylcarbamoyl-2-[4-(3-sulfopropoxy)phenyl]ethylcarbamoyl}-2(R or S)-phthalimidomethylhexanohydroxamic acid sodium salt] | 1.0 |  | LPS inhibitory ratio ([1]; final concentration of compound 100 μM, shake culture 37° C., limulus reagent): 46.5-65.8%; inhibition in vivo at 2.5 mg/kg/h [2, 3]: 88.3%; inhibition in vivo at 2.5 mg/kg/h [2, 4]: 79.9%
CNC(=O)[C@@H](Cc1ccc(OCCCS(=O)(=O)[O-])cc1)NC(=O)[C@H](CC(C)C)C(CN1C(=O)c2ccccc2C1=O)C(=O)NO.[Na+] (single isomer, unassigned) [Example 3, 5-methyl-3(R)-{1(R)-methylcarbamoyl-2-[4-(3-sulfopropoxy)phenyl]ethylcarbamoyl}-2(R or S)-phthalimidomethylhexanohydroxamic acid sodium salt] | 0.70 |  | 
CNC(=O)[C@H](Cc1ccc(OCCCS(=O)(=O)[O-])cc1)NC(=O)[C@H](CC(C)C)C(CN1C(=O)c2ccccc2C1=O)C(=O)NO.[Na+] (single isomer, unassigned) [Example 4, 5-methyl-3(R)-{1(S)-methylcarbamoyl-2-[4-(3-sulfopropoxy)phenyl]ethylcarbamoyl}-2(R or S)-phthalimidomethylhexanohydroxamic acid sodium salt] | 0.69 |  | 
CNC(=O)[C@@H](Cc1ccc(OCCCS(=O)(=O)[O-])cc1)NC(=O)[C@H](CC(C)C)C(CN1C(=O)c2ccccc2C1=O)C(=O)NO.[Na+] (single isomer, unassigned) [Example 5, 5-methyl-3(R)-{1(R)-methylcarbamoyl-2-[4-(3-sulfopropoxy)phenyl]ethylcarbamoyl}-2(R or S)-phthalimidomethylhexanohydroxamic acid sodium salt] | 0.80 |  | 
CNC(=O)[C@@H](Cc1ccc(OCCCS(=O)(=O)[O-])cc1)NC(=O)[C@@H](CC(C)C)C(CN1C(=O)c2ccccc2C1=O)C(=O)NO.[Na+] (single isomer, unassigned) [Example 6, 5-methyl-3(S)-{1(R)-methylcarbamoyl-2-[4-(3-sulfopropoxy)phenyl]ethylcarbamoyl}-2(R or S)-phthalimidomethylhexanohydroxamic acid sodium salt] | 0.69 |  | 
CNC(=O)[C@H](Cc1ccc(OCCCS(=O)(=O)[O-])cc1)NC(=O)[C@@H](CC(C)C)C(CN1C(=O)c2ccccc2C1=O)C(=O)NO.[Na+] (single isomer, unassigned) [Example 7, 5-methyl-3(S)-{1(S)-methylcarbamoyl-2-[4-(3-sulfopropoxy)phenyl]ethylcarbamoyl}-2(R or S)-phthalimidomethylhexanohydroxamic acid sodium salt] | 0.79 |  | 
CNC(=O)[C@@H](Cc1ccc(OCCCS(=O)(=O)[O-])cc1)NC(=O)[C@@H](CC(C)C)C(CN1C(=O)c2ccccc2C1=O)C(=O)NO.[Na+] (single isomer, unassigned) [Example 8, 5-methyl-3(S)-{1(R)-methylcarbamoyl-2-[4-(3-sulfopropoxy)phenyl]ethylcarbamoyl}-2(R or S)-phthalimidomethylhexanohydroxamic acid sodium salt] | 0.60 |  | 
CNC(=O)[C@H](Cc1ccc(OCCCS(=O)(=O)[O-])cc1)NC(=O)[C@@H](CC(C)C)C(CN1C(=O)c2ccccc2C1=O)C(=O)NO.[Na+] (single isomer, unassigned) [Example 9, 5-methyl-3(S)-{1(S)-methylcarbamoyl-2-[4-(3-sulfopropoxy)phenyl]ethylcarbamoyl}-2(R or S)-phthalimidomethylhexanohydroxamic acid sodium salt] | 0.51 |  | 
CNC(=O)[C@H](Cc1ccc(OCCS(=O)(=O)[O-])cc1)NC(=O)[C@H](CC(C)C)C(CN1C(=O)c2ccccc2C1=O)C(=O)NO.[Na+] (single isomer, unassigned) [Example 10, 5-methyl-3(R)-{1(S)-methylcarbamoyl-2-[4-(2-sulfoethoxy)phenyl]ethylcarbamoyl}-2(R or S)-phthalimidomethylhexanohydroxamic acid sodium salt] |  | 0.87 | inhibition in vivo at 2.5 mg/kg/h [2, 3]: 88.1%; inhibition in vivo at 2.5 mg/kg/h [2, 4]: 81.4%
CNC(=O)[C@H](Cc1ccc(OCCCCS(=O)(=O)[O-])cc1)NC(=O)[C@H](CC(C)C)C(CN1C(=O)c2ccccc2C1=O)C(=O)NO.[Na+] (single isomer, unassigned) [Example 11, 5-methyl-3(R)-{1(S)-methylcarbamoyl-2-[4-(4-sulfobutoxy)phenyl]ethylcarbamoyl}-2(R or S)-phthalimidomethylhexanohydroxamic acid sodium salt] |  | 0.74 | inhibition in vivo at 2.5 mg/kg/h [2, 3]: 5.5%; inhibition in vivo at 2.5 mg/kg/h [2, 4]: 36.2%
CNC(=O)[C@H](Cc1ccc(OCCCCCS(=O)(=O)[O-])cc1)NC(=O)[C@H](CC(C)C)C(CN1C(=O)c2ccccc2C1=O)C(=O)NO.[Na+] (single isomer, unassigned) [Example 12, 5-methyl-3(R)-{1(S)-methylcarbamoyl-2-[4-(5-sulfopentoxy)phenyl]ethylcarbamoyl}-2(R or S)-phthalimidomethylhexanohydroxamic acid sodium salt] |  | 0.85 | 
CNC(=O)[C@H](Cc1ccc(OCCCS(=O)(=O)[O-])cc1)NC(=O)[C@H](CC(C)C)C(Cc1ccc2ccccc2c1)C(=O)NO.[Na+] (single isomer, unassigned) [Example 13, 5-methyl-3(R)-{1(S)-methylcarbamoyl-2-[4-(3-sulfopropoxy)phenyl]ethylcarbamoyl}-2(R or S)-(2-naphthylmethyl)hexanohydroxamic acid sodium salt] |  | 0.87 | inhibition in vivo at 2.5 mg/kg/h [2, 3]: 44.7%; inhibition in vivo at 2.5 mg/kg/h [2, 4]: 74.2%
CC(C)C[C@@H](C(=O)N[C@@H](Cc1ccccc1)C(=O)NCS(=O)(=O)[O-])C(Cc1ccc2ccccc2c1)C(=O)NO.[Na+] (single isomer, unassigned) [Example 25, 5-methyl-2(R or S)-(2-naphthylmethyl)-3(R)-[2-phenyl-1(S)-(sulfomethylcarbamoyl)ethylcarbamoyl]hexanohydroxamic acid sodium salt] |  | 0.33 | 
CC(C)C[C@@H](C(=O)N[C@@H](Cc1ccccc1)C(=O)NCCS(=O)(=O)[O-])C(Cc1ccc2ccccc2c1)C(=O)NO.[Na+] (single isomer, unassigned) [Example 26, 5-methyl-2(R or S)-(2-naphthylmethyl)-3(R)-[2-phenyl-1(S)-(2-sulfoethylcarbamoyl)ethylcarbamoyl]hexanohydroxamic acid sodium salt] |  | 0.54 | 
